Measurements: US20110130371A1, “C-ring-substituted pregn-4-ene-21,17-carbolactones, and pharmaceutical preparations comprising the same” (BAYER SCHERING PHARMA AKTIENGESSELSCHAFT, priority 2008, published 2011)

Assays:
[1] = target: T1, human androgen receptor (hAR) (Homo sapiens, UniProt P10275); assay: Antiandrogen transactivation assay (PC3 cells, hAR, MMTV-luciferase reporter); type: cell-based; conditions: for IC50: PC3 cells stably transfected with hAR and MMTV-luciferase, 16 hours incubation, read-out: IC50, antiandrogenic effect in the transactivation assay; for Efficacy: per cent of the maximum effect of reference antiandrogen hydroxyflutamide
T1 construct: expressed in transfected cells; host or cells: PC3 cells, stably transfected with hAR and an MMTV-luciferase reporter
T1 sequence (P10275 1-920): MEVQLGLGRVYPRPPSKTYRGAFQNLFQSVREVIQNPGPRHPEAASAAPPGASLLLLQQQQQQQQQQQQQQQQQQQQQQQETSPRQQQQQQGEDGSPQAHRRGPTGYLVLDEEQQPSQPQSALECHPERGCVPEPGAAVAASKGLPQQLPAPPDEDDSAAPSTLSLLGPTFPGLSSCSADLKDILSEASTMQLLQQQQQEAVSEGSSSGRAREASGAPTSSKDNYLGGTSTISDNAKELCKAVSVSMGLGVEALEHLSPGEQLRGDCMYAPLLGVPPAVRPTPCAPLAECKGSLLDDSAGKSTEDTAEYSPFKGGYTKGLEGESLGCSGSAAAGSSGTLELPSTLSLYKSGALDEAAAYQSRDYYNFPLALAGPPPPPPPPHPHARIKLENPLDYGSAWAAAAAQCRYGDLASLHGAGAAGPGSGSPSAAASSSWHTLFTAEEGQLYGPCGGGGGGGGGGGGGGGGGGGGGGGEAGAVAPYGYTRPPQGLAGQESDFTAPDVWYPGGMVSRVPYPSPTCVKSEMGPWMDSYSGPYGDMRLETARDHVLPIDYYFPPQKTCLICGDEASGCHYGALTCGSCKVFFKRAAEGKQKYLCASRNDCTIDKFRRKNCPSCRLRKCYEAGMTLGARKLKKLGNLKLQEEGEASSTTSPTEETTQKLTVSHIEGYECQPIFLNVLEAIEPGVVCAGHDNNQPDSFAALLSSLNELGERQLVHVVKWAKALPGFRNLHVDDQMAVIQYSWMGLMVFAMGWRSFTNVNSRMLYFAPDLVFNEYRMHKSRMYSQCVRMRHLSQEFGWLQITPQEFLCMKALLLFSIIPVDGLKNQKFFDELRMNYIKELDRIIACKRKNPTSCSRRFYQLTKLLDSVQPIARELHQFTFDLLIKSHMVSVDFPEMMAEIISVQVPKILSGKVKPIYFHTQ
Description: The antiandrogenic effect was carried out as described in Schneider et al. (Schneider K., Graf E., Irran E., Nicholson G., Stainsby F. M., Goodfellow M., Borden S. A., Keller S., Süssmuth R. D. and Fiedler H. P. (2008) Bendigoles A˜C, New Steroids from Gordonia australis Acta 2299, J. Antibiotics (Tokyo) 61 (6), 356-364).
The culture medium used for culturing cells used for the assay was RPMI (PAA, #E15-49) with 10% FCS, […] L-glutamine, 100 U/100 ug/ml penicillin/streptomycin. Reporter cell lines (PC3 cells stably transfected with human androgen receptor (hAR) and a reporter construct which comprises luciferase under the control of an androgen-responsive promoter (MMTV)) were grown at a density of 4×10^4 cells per well in white, opaque tissue culture plates with 96 wells in each (Perkin Elmer, #P12-106-017) and maintained in culture medium with 3% DCC-FCS (serum treated with activated carbon to remove interfering components present in the serum). The compounds to be investigated were added eight hours later, and the cells were incubated with the compounds for 16 hours. The experiments were carried out in triplicate. At the end of the incubation, the effector-containing medium was removed and replaced by lysis buffer.
After luciferase assay substrate (Promega, #E1501) had been added, the plates with the 96 wells were then inserted into a microplate luminometer (Pherastar, BMG labtech), and the luminescence was measured. The IC50 values were evaluated using software for calculating dose-activity relationships. The efficacy indicates the per cent of the maximum effect by comparison with the maximum effect of a reference antiandrogen (hydroxyflutamide).

[2] = tested on: adrenalectomized rats; assay: Antimineralocorticoid effect in adrenalectomized rats (diuresis experiment); type: in vivo, rat; conditions: for ED50, antimineralocorticoid effect in the diuresis experiment: adrenalectomized male rats, s.c., aldosterone 1 μg/kg/h, AUC of urinary Na/K ratio
Description: The antimineralocorticoid effect of the compounds was determined as described by Losert at al. (Losert, W., Casals-Stenzel, J., and Buse, M. (1985). Progestogens with antimineralocorticoid activity. Arzneimittelforschung 35, 459-471).
Male animals weighing 180-200 g were adrenalectomized 5 days before the experiment and received replacement with glucocorticoids. A diuresis experiment was carried out on day 5 after the adrenalectomy. A continuous infusion of isotonic NaCl solution plus 5% glucose was administered i.v. to the animals. Simultaneous administration of 1 μg/kg/h d-aldosterone achieved a constant mineralocorticoid effect, identifiable from sodium retention and kaliuresis. The test compounds were administered s.c. in various dosages (3, 10 and 30 mg/kg), and the abolition of the aldosterone-induced sodium retention indicates an antimineralocorticoid effect.
The animals were kept in metabolism cages and urine fractions were collected each hour. The sodium and potassium ion concentration in the urine was determined by a flame-photometry method, and the Na/K ratio was calculated therefrom. The Na/K ratios were plotted against time and the area under the curve [AUC] was determined. The ED50 (concentration at which the half-maximum effect occurs) was determined as a measure of the antimineralocorticoid potency.

[3] = tested on: ovariectomized rats; assay: Progestational effect in ovariectomized rats (pregnancy maintenance test); type: in vivo, rat; conditions: ovariectomized pregnant rats, 5 μg/kg/d oestrone, treatment from day 8 p.c. for 6 days
Description: This entails investigating the ability of the compounds to compensate for the lack of progesterone in ovariectomized animals which no longer have their own progesterone synthesis and to maintain pregnancy (“pregnancy maintenance”).
Female animals weighing 200-230 g were mated. The animals were ovariectomized on day 8 post coitum (p.c.) and treated with 5 μg/kg/d oestrone. The compounds to be tested were given in various concentrations (3, 10, 30 mg/kg/d). Treatment was started on day 8 p.c. and continued for 6 days.
One day after the last treatment, the animals were autopsied. The degree of pregnancy maintenance was calculated by dividing the number of live fetuses by the number of detectable implantation sites. The presence of a beating heart was decisive for assessing a fetus as alive. No identifiable implantation sites (ovariectomized controls) was defined as 0% pregnancy maintenance.
The ED50 (concentration at which the half-maximum effect occurs) was determined as a measure of the progestational potency.

[4] = tested on: orchidectomized rats; assay: Antiandrogenic effect in orchidectomized rats (Hershberger); type: in vivo, rat; conditions: for Antiandrogenic effect (% inhibition): 1 mg/kg/day TP s.c. plus 10 mg/kg/day test substance for seven days, prostate weight; for antiandrogenic effect (in words): Hershberger
Description: This entails testing the suitability of the compounds for inhibiting the androgen-dependent growth of prostate, seminal vesicle and levator ani muscle in young, male, castrated rats receiving androgen replacement.
For this purpose, young rats are initially castrated. Eight days after the orchidectomy, the animals receive 1 mg/kg/day testosterone propionate (TP) s.c. alone or in combination with the test substances (10 mg/kg/day) for seven days.
On day 15 after the orchidectomy, the animals are sacrificed, and prostate, seminal vesicle and levator ani muscle are dissected out, and the relative wet weight is determined. The inhibited androgen-induced growth serves as a measure of the antiandrogenic effect of the test substance.

[5] = tested on: IDI1 mRNA; assay: Antiandrogenic effect in orchidectomized rats, gene expression in prostate tissue (TaqMan PCR); conditions: for antiandrogenic effect (in words): IDI1 gene expression, orchidectomized rats; for fold induction at 10 mg/kg: Rattus norvegicus, 24 h, read-out: x-fold induction factor of IDI1 mRNA after TP administration; for Antiandrogenic effect (% inhibition): inhibition of TP-induced IDI1 mRNA induction, prostate, 24 hours
Description: As a modification of the Hershberger assay described above, in addition animals were sacrificed 24 hours after the first treatment (1 mg/kg TP, 10 mg/kg test substance), and prostate tissue was shock-frozen immediately after the autopsy and then employed for mRNA isolation. A quantitative PCR method (TagMan) was used to investigate the induction (x-fold induction factor) of androgen-stimulated genes, inter alis of steroid biosynthesis (e.g. IDI1, NM 004508.2) as a measure of the androgenic effect of TP and the inhibition thereof by the compounds of the invention.

[6] = tested on: ovariectomized rats; assay: Modified pregnancy maintenance experiment with pharmacokinetic/pharmacodynamic model (AUC versus pregnancy maintenance); type: in vivo; conditions: rat, calculated from physiologically based PK model
Excerpt: In order to describe the difference in their progestational potency more precisely, in a modified pregnancy maintenance experiment blood samples were additionally taken at various times to determine pharmacokinetic parameters. The rats were pretreated in this case as described in the preceding experiment. A physiologically based pharmacokinetic model was developed using the programmes PK-SIM, version 4.0.1 (Bayer Technology Services, Leverkusen, Germany), GastroPlus version 5.2 (Simulations Plus, Inc., Lancaster, Calif., USA) and WinNonlin® Professional (version 5.2, Pharsight Corp., Mountain View, Calif., USA).
The relation was found between the AUC (area under the curve of the time-concentration profile) reached during the experiment and the measured pharmacological effect, i.e. the pregnancy maintenance achieved. The model thus permitted estimation of AUC50 values.
Based on the relation between systemic exposure and effect, the AUC in blood necessary to achieve 80% pregnancy maintenance in the rat model was calculated (Table 2).

Compound	IC50 [1]	Efficacy [1]	ED50, antimineralocorticoid effect in the diuresis experiment [2]	ED50, progestational effect in the pregnancy maintenance test [3]	Antiandrogenic effect (% inhibition) [4]	antiandrogenic effect (in words) [5]	fold induction at 10 mg/kg [5]	Antiandrogenic effect (% inhibition) ([5]; 10 mg/kg test substance)	AUC (blood, calculated) in rats necessary for 80% pregnancy maintenance [6]	antiandrogenic effect (in words) [4]	ED50 ([2]; Rattus norvegicus, sc)	x-fold induction factor of IDI1 mRNA after TP administration ([5]; prostate tissue 24 hours after first treatment, 1 mg/kg TP, 10 mg/kg test substance)
C[C@]12CCC(=O)C=C1[C@@H]1C[C@@H]1C1C2[C@@H](F)C[C@@]2(C)C1[C@@H]1C[C@@H]1[C@@]21CCC(=O)O1 (single isomer, unassigned) [Compound of Ex. 2, 6β,7β;15β,16β-Dimethylene-11β-fluoro-3-oxo-17-pregn-4-ene-21,17β-carbolactone]	160 nM	31.9 per cent	12.36 mg/kg/day	3.4 mg/kg/day	3.8%	–	–	–	–	–	–	–
C[C@]12CCC(=O)C=C1[C@@H]1C[C@@H]1C1C2=CC[C@@]2(C)C1[C@@H]1C[C@@H]1[C@@]21CCC(=O)O1 (stereo partly drawn) [Compound of Ex. 1, 6β,7β;15β,16β-Dimethylene-3-oxo-17-pregna-4,9(11)-diene-21,17β-carbolactone]	240 nM	19.3 per cent	5.9 mg/kg/day	2.9 mg/kg/day	<0%	no antiandrogenic effect	7.89	<0%	210 (μg*h/L)	–	–	–
CC(=O)O[C@]1(C(C)=O)CC[C@H]2[C@@H]3C=C(Cl)C4=CC(=O)[C@@H]5C[C@@H]5[C@]4(C)[C@H]3CC[C@@]21C [Cyproterone acetate, cyproterone acetate]	–	–	–	–	73.1%	strong antiandrogenic effect	1.53	91%	–	strong antiandrogenic effect	–	–
C[C@]12CCC(=O)C=C1[C@@H]1C[C@@H]1C1C2CC[C@@]2(C)C1[C@@H]1C[C@@H]1[C@@]21CCC(=O)O1 (stereo partly drawn) [Drospirenone, 6β,7β-15β,16β-dimethylene-3-oxo-17-pregn-4-ene-21,17β-carbolactone]	–	–	–	10 mg/kg/day	22.5%	smaller but distinct antiandrogenic effect	–	27%	1346 (μg*h/L)	smaller but distinct antiandrogenic effect	6.7 mg/kg	–
CCC(=O)O[C@H]1CC[C@H]2[C@@H]3CCC4=CC(=O)CC[C@]4(C)[C@H]3CC[C@]12C [TP, testosterone propionate]	–	–	–	–	–	–	–	–	–	–	–	7.07
